# pEC50, pIC50: −log10 of the molar value.
# What was measured:
# [1] = Single dose PK study in male CD-1 mice; type: in vivo, mouse; conditions: for bioavailability / half-life / Cmax / Tmax / Vd/F: mouse, whole blood; for bioavailability: 3 mg/kg po vs 0.33 mg/kg iv; for half-life: single dose 3 mg/kg po and 0.33 mg/kg iv, route of parameter not given; for half-life / Cmax / Tmax / Vd/F / Clobs / Clobs/F: blood; for Cmax / Tmax / Vd/F / Clobs/F: single dose 3 mg/kg po; for Vd/F: read-out: Vz/F; for Clobs: single dose 0.33 mg/kg iv
# Description: In order to undertake a preliminary assessment of the pharmacokinetic (PK) profile of this compound class, three compounds were deemed to have sufficient intrinsic potency, solubility and in vitro metabolic stability properties to progress into a single dose in vivo PK study. […] […] […] Nonetheless, the clearance of the three compounds was high to moderate, and at this dose the in vitro EC50 was not reached.
# Male CD-1 mice were used for the PK studies, with three for each treatment. […] Blood concentration was measured by LC-MS/MS over 24 h.
# [2] = Metabolic stability in mouse S9 fraction; type: in vitro ADME; conditions: ER = Clint/species flow rate (mice: 90 mL/min/kg)
# Experimental: (§1) Determination of semi-thermodynamic solubility, metabolic stability in S9 fraction, Caco-2 permeability and PPB were performed by Cyprotex Ltd. (www.cyprotex.com, accessed on 22 October 2021) using their standard assays and as described on their website.
# [22] Extraction ratio (ER) is calculated as the measured intrinsic clearance over the hepatic blood flow of each species (90 mL/min/kg for mice). It has the advantage over other parameters (half-life, clearance) that it is independent of the species used
# HL-60 cells = assay: CD11b expression assay by flow cytometry in HL-60 cells; type: cell-based, human; conditions: for EC50: Homo sapiens, HL-60, 96 h, 4-day (96 h) treatment, CD11b upregulation, read-out: EC50 [nM], %CD11b response in HL60 cells; for LipE (lipophilic efficiency): LipE = -LogEC50-cLogP, EC50 of CD11b assay in HL-60; for Activity in the CD11b assay: concentration-response
# Experimental: (§2) Cells were treated with 1000 structurally diverse small molecules selected from a commercial library. A single point testing concentration of 10 µM was used. After 4 days, cells were stained with a CD11b antibody and analysed using flow cytometry. Compounds upregulating CD11b expression greater than 10% in at least three of the cell lines were considered as potential hits. Hit confirmation was undertaken as follows: first, the hit was re-tested at 10 µM both with the CD11b antibody and an isotype control to account for nonspecific binding. Secondly, the effect of the hit on cell proliferation and viability was evaluated through staining with DAPI to evaluate the number of dead cells, and with acridine orange to detect total cell numbers. Thirdly, the induction of differentiation caused by the compounds was confirmed through morphology assessment with Giemsa staining. Finally, the molecule was resynthesised and fully characterised to confirm structural authenticity. This fresh sample was then retested in the CD11b assay to generate a concentration-response curve. The study of proliferation and morphology was performed on a panel of six cell lines: HL-60, THP-1, OCI-AML3, KG-1, Kasumi-1 and ME-1.
# Thus, structure-activity relationship studies were initiated, where the potency of the new analogues was evaluated through concentration-response testing using the CD11b assay in HL-60 cells. Lipophilic efficiency (LipE), which also accounts for lipophilicity, was also used to compare the quality of the analogues. Even though multiple parameters can influence activity in a cell-based assay, LipE is a useful guide to compare analogues.
# PE mouse-anti-human-CD11b/Mac-1 (ICRF44, Cat 555388) and PE-mouse-IgG1-κ-isotype control (MOPC-21, Cat 555749) were purchased from BD Bioscience. Cells were suspended in 100 μL growth media (RPMI + 10% FBS + 1% L-glutamine) at a density of 2 × 10^4 cells/well of a V-bottom 96 well plate (Corning, Cat 3894) and grown for 96 h in the presence of compound at the required concentration. After 96 h, the plate was centrifuged, media was removed, and cells were resuspended in 50 µL of blocking buffer (IMDM, no phenol red + 10% FBS) containing 2.5 μL of either CD11b or isotype control antibody and incubated on ice in the dark for 20 min. Cells were washed twice in 200 μL of staining buffer (IMDM, no phenol red + 1% FBS) before being resuspended in 200 μL of staining buffer containing 1 μg/mL of DAPI to help identify dead cells. Flow cytometry data were collected on an Attune NxT and analysed using the Attune NxT software (Life Technologies).
# [3] = Semi-thermodynamic aqueous solubility; type: physicochemical; conditions: thermodynamic from solid
# Experimental: as §1
# porcine neuronal tubulin = target: T1, porcine neuronal tubulin (Sus scrofa, UniProt P02550+P02554); assay: Microtubule (tubulin) polymerisation cell-free assay; type: biochemical
# T1 construct: performed using porcine neuronal tubulin (Cytoskeleton, Inc, Denver, CO, USA, BK006P); purchased Cytoskeleton, Inc BK006P; host or cells: porcine brain (neuronal) tissue
# Experimental: The microtubule polymerisation assay was performed using porcine neuronal tubulin (Cytoskeleton, Inc, Denver, CO, USA, BK006P) as an adaptation of the original method of Shelanski et al. and Lee et al. at Cytoskeleton, Inc.
# THP-1 cells = assay: CD11b expression assay by flow cytometry in THP-1 cells; type: cell-based; conditions: Homo sapiens, 96 h, 4-day treatment, resynthesised sample
# Experimental: as §2, with “The study of proliferation and morphology was performed on a panel of six cell lines: HL-60, THP-1, OCI-AML3, KG-1, Kasumi-1 and ME-1.” left out
# (§3) PE mouse-anti-human-CD11b/Mac-1 (ICRF44, Cat 555388) and PE-mouse-IgG1-κ-isotype control (MOPC-21, Cat 555749) were purchased from BD Bioscience. […] Flow cytometry data were collected on an Attune NxT and analysed using the Attune NxT software (Life Technologies).
# [4] = test system: HL-60, THP-1, OCI-AML3, KG-1, Kasumi-1 and ME-1; assay: Morphology assessment of stained cytospins; type: cell-based, human; conditions: 10 µM, 4-day treatment, six cell lines
# Experimental: as §2
# Cells were prepared in staining buffer (IMDM, no phenol red + 2% FBS) at a concentration of approximately 1 × 10^5 cells/mL. […]
# OCI-AML3 cells = assay: CD11b expression assay by flow cytometry in OCI-AML3 cells; type: cell-based; conditions: Homo sapiens, OCI-AML-3, 96 h, 4-day treatment, resynthesised sample
# Experimental: as §2, with “The study of proliferation and morphology was performed on a panel of six cell lines: HL-60, THP-1, OCI-AML3, KG-1, Kasumi-1 and ME-1.” left out
# as §3
# [5] = test system: HL-60, THP-1, OCI-AML3, KG-1, Kasumi-1 and ME-1; assay: Cell counts and viability (acridine orange / DAPI); type: cell-based, human; conditions: 10 µM, 4 days
# Experimental: as §2, with “The study of proliferation and morphology was performed on a panel of six cell lines: HL-60, THP-1, OCI-AML3, KG-1, Kasumi-1 and ME-1.” left out
# Solution 13 containing acridin orange and DAPI was purchased from ChemoMetec (Cat 910-3013). After the appropriate cell treatment, one volume of solution 13 was added into 19 volumes of the premixed cell suspension and analysed using the NucleoCounter® NC-300^TM (ChemoMetec).
# Plasma protein binding = type: in vitro ADME; conditions: % unbound, read-out: PPB, unbound
# Experimental: as §1
# Caco-2 permeability = type: in vitro ADME; conditions: human
# Experimental: as §1
# DHODH = DHODH (Homo sapiens, UniProt Q02127); assay: Test against DHODH; type: biochemical; conditions: testing concentrations from 1 to 10 μM
# FLT3 = target: T2, FLT3 (Homo sapiens, UniProt P36888); assay: Test against FLT3; type: biochemical; conditions: testing concentrations from 1 to 10 μM
# T2 sequence (P36888 27-993): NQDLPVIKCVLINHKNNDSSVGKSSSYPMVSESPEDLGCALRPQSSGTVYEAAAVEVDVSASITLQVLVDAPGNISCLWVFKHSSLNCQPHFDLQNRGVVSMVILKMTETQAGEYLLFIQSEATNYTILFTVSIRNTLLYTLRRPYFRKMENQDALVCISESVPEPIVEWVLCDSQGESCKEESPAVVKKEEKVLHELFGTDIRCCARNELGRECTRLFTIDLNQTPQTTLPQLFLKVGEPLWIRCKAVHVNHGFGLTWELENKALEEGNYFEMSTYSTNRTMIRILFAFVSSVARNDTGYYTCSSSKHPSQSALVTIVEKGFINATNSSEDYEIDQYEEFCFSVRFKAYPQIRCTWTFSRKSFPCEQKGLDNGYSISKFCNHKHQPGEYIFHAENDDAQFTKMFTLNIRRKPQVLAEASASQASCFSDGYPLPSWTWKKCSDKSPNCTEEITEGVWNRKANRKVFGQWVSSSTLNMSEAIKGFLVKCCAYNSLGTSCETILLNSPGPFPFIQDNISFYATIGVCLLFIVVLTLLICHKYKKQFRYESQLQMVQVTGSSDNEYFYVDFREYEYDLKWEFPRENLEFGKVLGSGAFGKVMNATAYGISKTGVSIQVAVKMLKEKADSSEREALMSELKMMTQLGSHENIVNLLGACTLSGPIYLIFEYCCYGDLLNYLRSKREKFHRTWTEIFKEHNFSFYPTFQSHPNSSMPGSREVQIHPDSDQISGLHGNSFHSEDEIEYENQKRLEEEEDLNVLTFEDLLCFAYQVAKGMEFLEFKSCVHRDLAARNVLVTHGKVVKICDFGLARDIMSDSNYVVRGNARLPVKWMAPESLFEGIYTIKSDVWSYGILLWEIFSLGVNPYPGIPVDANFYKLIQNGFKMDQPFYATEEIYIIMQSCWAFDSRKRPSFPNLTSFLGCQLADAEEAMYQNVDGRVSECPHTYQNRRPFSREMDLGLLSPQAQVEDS
# panel of kinases = assay: Test against a panel of kinases; type: biochemical; conditions: testing concentrations from 1 to 10 μM
# [6] = aqueous (buffer or water not specified)
# [7] = aqueous medium (buffer not specified)
# T1 sequence (P02550 whole entry): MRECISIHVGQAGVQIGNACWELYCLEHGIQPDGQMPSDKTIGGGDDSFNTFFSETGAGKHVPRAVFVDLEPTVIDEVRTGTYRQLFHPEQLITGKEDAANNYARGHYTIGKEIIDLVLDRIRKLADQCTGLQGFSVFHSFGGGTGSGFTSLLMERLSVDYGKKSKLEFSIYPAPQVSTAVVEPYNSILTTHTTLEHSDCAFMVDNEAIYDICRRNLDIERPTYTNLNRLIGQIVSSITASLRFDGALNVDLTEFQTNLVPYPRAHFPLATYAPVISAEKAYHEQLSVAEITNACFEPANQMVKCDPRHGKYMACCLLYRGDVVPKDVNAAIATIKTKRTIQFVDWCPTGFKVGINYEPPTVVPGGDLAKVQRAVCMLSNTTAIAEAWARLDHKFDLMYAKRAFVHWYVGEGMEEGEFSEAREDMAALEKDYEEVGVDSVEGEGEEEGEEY
# T1 sequence (P02554 whole entry): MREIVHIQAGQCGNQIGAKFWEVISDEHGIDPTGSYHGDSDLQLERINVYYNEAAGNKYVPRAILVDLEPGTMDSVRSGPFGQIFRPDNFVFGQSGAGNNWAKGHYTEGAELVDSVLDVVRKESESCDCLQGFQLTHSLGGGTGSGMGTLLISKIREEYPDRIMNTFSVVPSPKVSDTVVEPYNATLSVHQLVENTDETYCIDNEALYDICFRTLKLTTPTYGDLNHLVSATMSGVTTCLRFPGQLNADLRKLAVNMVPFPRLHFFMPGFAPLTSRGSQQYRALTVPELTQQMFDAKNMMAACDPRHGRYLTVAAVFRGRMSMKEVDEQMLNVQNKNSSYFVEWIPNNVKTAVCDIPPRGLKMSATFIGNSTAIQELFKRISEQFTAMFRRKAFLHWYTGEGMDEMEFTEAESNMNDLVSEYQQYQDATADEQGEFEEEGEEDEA
# Sequence of DHODH (Q02127 whole entry, species assumed): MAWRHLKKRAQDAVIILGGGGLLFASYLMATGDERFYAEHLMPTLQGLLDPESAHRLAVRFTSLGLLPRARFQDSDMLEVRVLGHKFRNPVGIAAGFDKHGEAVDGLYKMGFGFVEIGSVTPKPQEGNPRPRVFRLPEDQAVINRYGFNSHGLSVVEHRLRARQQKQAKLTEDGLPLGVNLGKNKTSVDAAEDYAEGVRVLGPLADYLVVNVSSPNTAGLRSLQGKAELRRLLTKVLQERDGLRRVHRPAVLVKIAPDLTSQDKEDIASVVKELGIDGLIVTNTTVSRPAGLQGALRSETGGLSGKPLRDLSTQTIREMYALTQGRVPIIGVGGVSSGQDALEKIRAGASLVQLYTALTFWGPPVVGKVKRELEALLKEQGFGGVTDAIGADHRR
structure (smiles),measurement,setting,value
"CS(=O)(=O)Nc1cccc(-c2ccc3c(c2)N(CC(F)(F)F)C(=O)COC3)c1 [Compound 11, N-(3-(2-Oxo-1-(2,2,2-trifluoroethyl)-1,2,3,5-tetrahydrobenzo[e][1,4]oxazepin-8-yl)phenyl)methanesulfonamide]",bioavailability,[1],38%
same,half-life,[1],5.8 h
same,Cmax,[1],160 ng/mL
same,Tmax,[1],0.33 h
same,Vd/F,[1],73 L/kg
same,Clobs,[1],61 mL/min/kg
same,Clobs/F,[1],159 mL/min/kg
same,ER in mS9 (extraction ratio),[2],0.05
same,EC50,HL-60 cells; HL-60 cells,1900 nM
same,LipE (lipophilic efficiency),HL-60 cells,3.8
same,solubility thermodynamic,[3]; [6],33 µM
"CC(C)N1C(=O)COCc2ccc(-c3ccccc3NS(C)(=O)=O)cc21 [Compound 25, N-(2-(1-Isopropyl-2-oxo-1,2,3,5-tetrahydrobenzo[e][1,4]oxazepin-8-yl)phenyl)methanesulfonamide]",Effect on polymerisation of tubulin,porcine neuronal tubulin; testing concentrations of up to 100 μM,did not have an effect
same,Activity in the CD11b assay,HL-60 cells; HL-60 cells,inactive
same,EC50,HL-60 cells; HL-60 cells,> 30000 nM
"COc1ccc(-c2ccc3c(c2)N(C(C)C)C(=O)COC3)cc1NS(C)(=O)=O [Compound 37, N-(5-(1-Isopropyl-2-oxo-1,2,3,5-tetrahydrobenzo[e][1,4]oxazepin-8-yl)-2-methoxyphenyl)methanesulfonamide]",ER in mS9 (extraction ratio),[2],1
same,EC50,HL-60 cells; HL-60 cells,1200 nM
same,LipE (lipophilic efficiency),HL-60 cells,4.2
same,solubility thermodynamic,[3]; aqueous (not further specified),> 200 µM
"CS(=O)(=O)Nc1cccc(-c2ccc3c(c2)N(CC2CC2)C(=O)OC3)c1 [Compound 41, N-(3-(1-(Cyclopropylmethyl)-2-oxo-1,4-dihydro-2H-benzo[d][1,3]oxazin-7-yl)phenyl)methanesulfonamide]",ER in mS9 (extraction ratio),[2],0.54
same,Loss in activity compared to OXS003976,"HL-60 cells; CD11b EC50 in HL-60, vs OXS003976",15 fold
same,EC50,HL-60 cells; HL-60 cells,15000 nM
same,LipE (lipophilic efficiency),HL-60 cells,2.5
same,solubility thermodynamic,[3]; [7],77 µM
"CC(C)N1C(=O)COCc2ncc(-c3cccc(NS(C)(=O)=O)c3)cc21 [Compound 42, N-(3-(1-Isopropyl-2-oxo-1,2,3,5-tetrahydropyrido[3,2-e][1,4]oxazepin-8-yl)phenyl)methanesulfonamide]",ER in mS9 (extraction ratio),[2],0.09
same,Activity in the CD11b assay,HL-60 cells; HL-60 cells,retained weak activity
same,EC50,HL-60 cells; HL-60 cells,2200 nM
same,LipE (lipophilic efficiency),HL-60 cells,4.9
same,solubility thermodynamic,[3]; [7],> 200 µM
"CS(=O)(=O)Nc1cccc(-c2ccc3c(c2)N(CC2CC2)C(=O)COC3)c1 [OXS003976, N-(3-(1-(Cyclopropylmethyl)-2-oxo-1,2,3,5-tetrahydrobenzo[e][1,4]oxazepin-8-yl)phenyl)methanesulfonamide]",pEC50,THP-1 cells,5.47
same,Cell morphology,[4],induced morphological changes consistent with differentiation
same,ER in mS9 (extraction ratio),[2],0.54
same,pEC50,OCI-AML3 cells,6.02
same,Cell proliferation and viability,[5],decreased cell proliferation and viability
same,CD11b expression vs isotype control,"HL-60 cells; 10 µM, 4-day treatment, HL-60 cells","upregulated CD11b expression, but not the isotype control"
same,EC50,HL-60 cells; HL-60 cells,770 nM
same,LipE (lipophilic efficiency),HL-60 cells,4.3
same,solubility thermodynamic,[3]; [6],> 200 µM
"CC(C)N1C(=O)COCc2ccc(-c3cccc(NS(C)(=O)=O)c3)cc21 [OXS007002, N-(3-(1-Isopropyl-2-oxo-1,2,3,5-tetrahydrobenzo[e][1,4]oxazepin-8-yl)phenyl)methanesulfonamide]",fraction unbound,Plasma protein binding,0.11
same,pIC50,"porcine neuronal tubulin; read-out: IC50, inhibition of tubulin polymerisation",5.44
same,efflux ratio,"Caco-2 permeability; Caco-2, read-out: EfR, efflux ratio (Caco-2)",1.3
same,Papp,Caco-2 permeability; Caco-2 cell permeability,31 ×10⁻⁶ cm/s
same,bioavailability,[1],28%
same,half-life,[1],4.9 h
same,Cmax,[1],104 ng/mL
same,Tmax,[1],0.42 h
same,Vd/F,[1],101 L/kg
same,Clobs,[1],73 mL/min/kg
same,Clobs/F,[1],258 mL/min/kg
same,Activity against DHODH,DHODH,inactive
same,Activity against FLT3,FLT3,inactive
same,ER in mS9 (extraction ratio),[2],0.33
same,EC50,HL-60 cells; HL-60 cells,620 nM
same,LipE (lipophilic efficiency),HL-60 cells,4.5
same,solubility thermodynamic,[3]; [6],> 200 µM
same,Activity against a panel of kinases,panel of kinases,inactive

# Reference: publication PMC8588310, “Identification and Preliminary Structure-Activity Relationship Studies of 1,5-Dihydrobenzo[e][1,4]oxazepin-2(3H)-ones That Induce Differentiation of Acute Myeloid Leukemia Cells In Vitro” (Molecules, 2021)
